Test results as given in patent US10815312B2, “Bifunctional peptide having capability to permeate cells and capability to regenerate muscles and use thereof” (Seoul National University R&DB Foundation, priority 2018, dated 2020).

What was measured:
intracellular HDAC5 = target: T1, intracellular HDAC5 (Mus musculus, UniProt Q9Z2V6); test: Binding ability to intracellular HDAC5 by immunoprecipitation; details: C2C12 cells treated for 2 hours, immunoprecipitation with HDAC5 antibody, western blotting with FITC antibody (FIG. 2)
T1 construct: endogenous in cells; host or cells: C2C12 muscle precursor cells
Procedure: Muscle precursor cells (C2C12) were transplanted at a density of 1.5×10^6/well in a 10 pi dish and cultured in EMEM (Eagle's Minimal Essential Medium, ATCC). The medium was replaced at 24-hour intervals until confluency of cells reached 50%. When the confluency was 50%, the medium was replaced with Essential 8 medium, and the cells were treated with the peptide of SEQ ID NO: 1 for 2 hours. Then, the binding ability to intracellular HDAC5 was identified by immunoprecipitation. The lysate harvested with RIPA buffer containing a protease inhibitor was quantified through a BCA assay. Each sample quantified with a minimum volume of 500 μl at a concentration of 1 μg/ml was collected in a microtube, 2 μg of HDAC5 first antibody was added thereto, and the mixture was reacted under rotation for 16 hours at 4° C. in a refrigerated state. 20 μl of protein A/G agarose beads were added and reacted at 4° C. for 3 hours. Then, the beads were centrifuged, washed three times with DPBS and heated at 85° C. for 5 minutes in a 2× sample buffer, and only the supernatant was obtained, followed by western blotting and identification using an FITC antibody.

mesenchymal stem cells = test: Differentiation of stem cells into myocytes, gene expression of muscle differentiation markers by real-time RT-PCR; format: cell-based; details: 100 μM peptide, muscle differentiation medium, real-time RT-PCR (FIG. 3)
Procedure: 3×10^6 mesenchymal stem cells were cultured in a bacterial culture dish for 3 days to form spheroids. The medium used was low-glucose DMEM with 10% FBS and 1% P/S. After 3 days, the supernatant was removed and only the spheroids were collected and seeded in a cell culture dish coated with 10 ug/ml of collagen type I for 4 days. The medium used was DMEM/F12 with 1 ng/ml TGFb (transforming growth factor beta), 1×NEAA (nonessential amino acids) and 1×ITS (insulin-transferrin selenium). After 4 days, the medium was changed to low-glucose DMEM with 2% FBS and 10 ng/ml IGF-1 (insulin growth factor-1), differentiation was further induced for 2 weeks, and muscle differentiation markers were identified. The cells were treated with 100 μM of the group not treated with peptide using only a muscle differentiation medium (NT), 100 μM of the groups treated with the peptides of SEQ ID NOS: 1 to 8 and 100 μM of the control peptide (SEQ ID NO: 9) in order to determine the efficiency of expression of the muscle differentiation markers by the peptides. The levels of gene expression of dystrophin and myogenin, as muscle differentiation markers, were measured through real-time RT-PCR. The base sequences of the PCR primers used for amplification of respective genes are as follows.

T1 sequence (Q9Z2V6 whole entry): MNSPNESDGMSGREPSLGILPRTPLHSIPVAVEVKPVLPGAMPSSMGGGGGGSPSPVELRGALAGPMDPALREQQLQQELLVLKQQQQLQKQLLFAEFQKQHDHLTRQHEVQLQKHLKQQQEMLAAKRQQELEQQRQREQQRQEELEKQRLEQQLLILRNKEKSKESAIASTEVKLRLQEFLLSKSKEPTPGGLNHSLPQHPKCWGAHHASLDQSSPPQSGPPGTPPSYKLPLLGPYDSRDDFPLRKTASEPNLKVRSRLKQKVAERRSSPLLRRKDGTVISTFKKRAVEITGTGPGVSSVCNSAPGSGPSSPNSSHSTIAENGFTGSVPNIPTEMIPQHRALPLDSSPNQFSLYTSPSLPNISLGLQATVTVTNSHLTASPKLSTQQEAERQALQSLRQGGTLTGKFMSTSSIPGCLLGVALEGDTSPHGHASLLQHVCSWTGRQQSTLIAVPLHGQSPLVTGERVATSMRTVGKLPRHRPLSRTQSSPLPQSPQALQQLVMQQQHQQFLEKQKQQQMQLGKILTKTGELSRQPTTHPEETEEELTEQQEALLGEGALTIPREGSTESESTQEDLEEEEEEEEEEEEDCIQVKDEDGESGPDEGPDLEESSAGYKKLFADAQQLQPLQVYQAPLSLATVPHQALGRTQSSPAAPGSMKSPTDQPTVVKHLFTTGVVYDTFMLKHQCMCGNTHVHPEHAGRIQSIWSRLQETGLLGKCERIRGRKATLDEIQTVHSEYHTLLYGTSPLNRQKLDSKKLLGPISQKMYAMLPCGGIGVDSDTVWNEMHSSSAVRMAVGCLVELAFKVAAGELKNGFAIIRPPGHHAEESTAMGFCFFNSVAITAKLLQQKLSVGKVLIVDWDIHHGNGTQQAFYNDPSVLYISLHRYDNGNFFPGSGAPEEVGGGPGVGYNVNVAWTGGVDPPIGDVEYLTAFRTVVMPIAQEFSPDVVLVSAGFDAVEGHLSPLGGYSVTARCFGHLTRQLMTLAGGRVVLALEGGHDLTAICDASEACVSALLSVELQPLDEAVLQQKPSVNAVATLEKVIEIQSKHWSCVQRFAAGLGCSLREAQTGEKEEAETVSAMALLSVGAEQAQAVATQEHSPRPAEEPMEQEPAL

## GKCSTRGRKCCRRKK [SEQ ID NO: 1]
Intracellular HDAC5
  binding to intracellular HDAC5: binds to intracellular HDAC5

## GLRSKSKKFRRPDIQYPDA (Control peptide C1) [SEQ ID NO: 9]
Mesenchymal stem cells
  gene expression of dystrophin: did not exhibit an increase in gene expression
  gene expression of myogenin: did not exhibit an increase in gene expression
